Values after ≈ are worked out from the molar mass of the structure shown. Read-outs that look alike come from different tables or passages of the source.
What was measured:
Mycobacterium lufu = experiment: Minimum inhibiting concentration, M. lufu L 209; assay type: cell-based; conditions: Mycobacterium lufu
[1] = test system: Mycobacterium tuberculosis H 37 RV; experiment: Minimum inhibiting concentration, M. tuberculosis H37RV; assay type: cell-based; conditions: Mycobacterium tuberculosis; M. tub. H37RV
Experimental: The minimum inhibiting concentration of the commercially available and inventive substances given in Table 2 was determined according to the known standard process ("Methods for sensitivity testing of bacterial infectious germs", DIN 58940, part 5).
The determination was carried out on the following bacterial cultures:
2. Mycobacterium tuberculosis H 37 RV, FIB 2-85 JS
For culturing the bacterial cultures use was made of nutrient substrates according to Gottsacker and Lowenstein Jensen and culture media according to Lockemann or Dubos-Davis (cf. "Detection processes for mycobacteria from test material, III, culture medium formulations for culturing tuberculosis bacteria", 1978, Publisher: Deutsches Zentralkomitee zur Bekampfung der Tuberculose, Poppenhusenstrasse 14c, 2000 Hamburg 60).
In each case 5×10^-3 to 5×10^-5 mg, based on the wet weight, of the mycobacterial strains were incubated in 2 ml of culture fluid (Lockemann +0.5 wt/vol. % bovine serum albumen fraction 5) at 31° C. with a graded concentration of the particular inhibitor (dilution series). The culture tubes were read off after 8 to 15 days, as a function of the bacterial strain.
The MIC is the inhibitor concentration in μMol/l at which no propagation of the sewn cells is observed.

[2] = test system: Mycobacterium marinum SN 1254; experiment: Minimum inhibiting concentration, M. marinum SN1254; assay type: cell-based
[3] = test system: Mycobacterium avium Patient Strain (Birk); experiment: Minimum inhibiting concentration, M. avium Patient Strain (Birk); assay type: cell-based; conditions: Mycobacterium avium, M. avium Patient str., read-out: Minimum inhibiting concentration
M. leprae [4] = experiment: Propagation of M. leprae in mouse paws; assay type: in vivo; conditions: two months in feed; DDS 0.0001%, Rifampicin 0.001%, K-130 0.01%, Brodimoprim 0.01%, PH 22-26 0.05%
Experimental: The therapeutic action was determined as a reduction of the number of acid-resistant bacteria in the mouse paw according to C. C. Shepard, J. Experim. Met., 112, p. 445, 1960.
It is possible to detect the synergistic effect of the combinations, even under in vivo conditions.

M. leprae [5] = experiment: In vitro propagation of M. leprae, thymidine incorporation; assay type: cell-based; conditions: Mycobacterium leprae, read-out: % Reduction Thymidine incorporation; for inhibition of growth at 10000 µg/mL: 10 mg/ml
Experimental: The inhibiting action was determined as a reaction of the thymidine absorption and the ATP content in M. Leprae suspensions, in the manner described by A. M. Dhople, Med. Sci. Res., 15, p.

[6] = test system: Mycobacterium smegmatis ATCC 607; experiment: Minimum inhibiting concentration, M. smegmatis ATCC 607; assay type: cell-based; conditions: Mycolicibacterium smegmatis
[7] = test system: Indochina W-2 (parasitic malaria strain); experiment: Growth of malaria strain Indochina W-2; assay type: cell-based; conditions: for IC50: read-out: I50; for IC90: read-out: I90
Excerpt: (§1) Determination of the semimaximum inhibiting concentration (I50) of typical representatives of the inventive compounds for the growth of parasitic malaria strains:
(§2) The determination took place according to the standard process (cf. WHO determination process).
(§3) The process according to Example 35 was repeated with the difference that the semimaximum inhibiting concentration of combinations of the inventive compound PH 22 with (2), (3) inhibitors of dihydrofolic acid reductase, (4) inhibitors of folate synthase and dihydrofolic acid reductase and (5), (6) inhibitors of DNA-synthesis were determined.

[8] = test system: Sierra Leone D-6 (parasitic malaria strain); experiment: Growth of malaria strain Sierra Leone D-6; assay type: cell-based; conditions: for IC50: read-out: I50; for IC90: read-out: I90
Excerpt: as §1, §2, §3

[9] = M. marin. SN1254, read-out: Minimum inhibiting concentration
[10] = ATCC607, M. smegm. ATCC 607, read-out: Minimum inhibiting concentration

SMILES | MIC (Mycobacterium lufu) [µM] | MIC [1] [µM] | MIC [2, 9] [µM] | MIC [6, 10] [µM] | other results
COc1cc(Cc2cnc(N)nc2N)cc(OC)c1Br [Brodimoprim, brodimoprim, reference compound] | 80 (≈ 27.1 µg/mL) | 94 (≈ 31.9 µg/mL) | 18 (≈ 6.11 µg/mL) | – | MIC ([3]; values marked *): > 100 µg/mL; % Inhibition of propagation of M. leprae in mouse paws (M. leprae [4]): 3%
Nc1ccc(S(=O)(=O)c2ccc(N)cc2)cc1 [DDS, 4,4'-diaminodiphenylsulphone] | – | – | – | – | inhibition of growth at 5000 µg/mL (M. leprae [5]; 5 mg/ml): 0%; inhibition of growth at 10000 µg/mL (M. leprae [5]): 5%; % Inhibition of propagation of M. leprae in mouse paws (M. leprae [4]): 14%
COc1cc(Cc2cnc(N)nc2N)cc(OC)c1OCCCNc1ccc(S(=O)(=O)c2ccc(N)cc2)cc1 [K-130, 2,4-diamino-5-{4-[3-(4'-aminophenyl-4-sulphonylphenylamino)-propoxy]-3,5-dimethoxybenzyl}-pyrimidine] | – | – | – | – | inhibition of growth at 10000 µg/mL (M. leprae [5]): 0%; inhibition of growth at 20000 µg/mL (M. leprae [5]; 20 mg/ml): 65%; % Inhibition of propagation of M. leprae in mouse paws (M. leprae [4]): 56%
C(=NNc1nncc2ccccc12)c1ccccn1 [PH 22-1, pyridine-2-aldehyde-1'-phthalazinylhydrazone] | 12.1 (≈ 3.02 µg/mL) | 49 (≈ 12.2 µg/mL) | – | 49 (≈ 12.2 µg/mL) | –
CC(=NNc1nncc2ccccc12)c1ccccn1 [PH 22-3, 2-acetylpyridine-1'-phthalazinylhydrazone] | 6.6 (≈ 1.74 µg/mL) | 31 (≈ 8.16 µg/mL) | 22 (≈ 5.79 µg/mL) | 44 (≈ 11.6 µg/mL) | MIC [3]: 53 µM
CCc1ccc(C=NNc2nncc3ccccc23)nc1 [PH 22-5, 5-ethylpyridine-2-aldehyde-1'-phthalazinylhydrazone] | 14.5 (≈ 4.02 µg/mL) | 16.6 (≈ 4.6 µg/mL) | 10.4 (≈ 2.88 µg/mL) | 67 (≈ 18.6 µg/mL) | –
C(=NNc1nncc2ccccc12)c1ccc(OCc2ccccc2)cn1 [PH 22-6, 5-benzyloxypyridine-2-aldehyde-1'-phthalazinylhydrazone] | 5.6 (≈ 1.99 µg/mL) | 8.5 (≈ 3.02 µg/mL) | 7 (≈ 2.49 µg/mL) | 40 (≈ 14.2 µg/mL) | MIC [3]: 7 µM
Cc1ccnc(C=NNc2nncc3ccccc23)c1 [PH 22-8, 4-methyl-pyridine-2-aldehyde-1'-phthalazinylhydrazone] | 31 (≈ 8.16 µg/mL) | 18 (≈ 4.74 µg/mL) | 22 (≈ 5.79 µg/mL) | 44 (≈ 11.6 µg/mL) | –
Cc1cccc(C=NNc2ccccn2)n1 [PH 22-10, 6-methyl pyridine-2-aldehyde-pyridylhydrazone] | 8.3 (≈ 1.76 µg/mL) | 47 (≈ 9.98 µg/mL) | – | 33 (≈ 7 µg/mL) | –
Clc1cccc(C=NNc2ccccn2)n1 [PH 22-11, 6-chloropyridine-2-aldehyde-2'-pyridylhydrazone] | 43 (≈ 10 µg/mL) | 86 (≈ 20 µg/mL) | – | 56 (≈ 13 µg/mL) | IC50 [7]: 8.9 µM; IC90 [7]: 23 µM; IC50 [8]: 13.1 µM; IC90 [8]: 25.7 µM
CCc1ccc(C=NNc2ccccn2)nc1 [PH 22-13, 5-ethyl-pyridine-2-aldehyde-2'-pyridylhydrazone] | 53 (≈ 12 µg/mL) | 22 (≈ 4.98 µg/mL) | 44 (≈ 9.96 µg/mL) | 22 (≈ 4.98 µg/mL) | –
Cc1ccc(C=NNc2ccc3ccccc3n2)nc1 [PH 22-14, 5-methyl-pyridine-2-aldehyde-2'-quinolylhydrazone] | 3.8 (≈ 0.997 µg/mL) | 1.2 (≈ 0.315 µg/mL) | 5.7 (≈ 1.5 µg/mL) | 9.5 (≈ 2.49 µg/mL) | –
Cc1ccc(C=NNc2nncc3ccccc23)nc1 [PH 22-16, 5-methyl-pyridine-2-aldehyde-1'-phthalazinylhydrazone] | 4.8 (≈ 1.26 µg/mL) | 1.4 (≈ 0.369 µg/mL) | 76 (≈ 20 µg/mL) | 5.7 (≈ 1.5 µg/mL) | –
CC(=O)Nc1ccnc(C=NNc2ccccn2)c1 [PH 22-17, 4-acetylamino-pyridine-2-aldehyde-2'-pyridylhydrazone] | 94 (≈ 24 µg/mL) | > 125 | – | – | MIC ([2]; SN1254, read-out: Minimum inhibiting concentration): > 125 µM; MIC ([6]; ATCC607, read-out: Minimum inhibiting concentration): > 125 µM; IC50 [7]: 0.5 µM; IC90 [7]: 2.3 µM; IC50 [8]: 0.6 µM; IC90 [8]: 1.1 µM
CC(=O)Nc1ccnc(C=NNc2nncc3ccccc23)c1 [PH 22-18, 4-acetylaminopyridine-2-aldehyde-1'-phthalazinylhydrazone] | 22.9 (≈ 7.01 µg/mL) | 46 (≈ 14.1 µg/mL) | 92 (≈ 28.2 µg/mL) | 65 (≈ 19.9 µg/mL) | –
CC(=O)Nc1ccnc(C=NNc2ccc3ccccc3n2)c1 [PH 22-19, 4-acetylaminopyridine-2-aldehyde-2'-quinolylhydrazone] | 32.9 (≈ 10 µg/mL) | 11.5 (≈ 3.51 µg/mL) | 11.5 (≈ 3.51 µg/mL) | 9.8 (≈ 2.99 µg/mL) | –
CC(=O)Nc1ccnc(C(C)=NNc2nncc3ccccc23)c1 [PH 22-20, 4-acetylamino-2-acetylpyridine-1'-phthalazinylhydrazine] | 12.5 (≈ 4 µg/mL) | 10.9 (≈ 3.49 µg/mL) | 88 (≈ 28.2 µg/mL) | 15.6 (≈ 5 µg/mL) | –
c1ccc(C(=NNc2nncc3ccccc23)c2ccccn2)cc1 [PH 22-22, 2-benzoylpyridine-1'-phthalazinylhydrazone] | 2.3 (≈ 0.748 µg/mL) | 18.5 (≈ 6.02 µg/mL) | 10.8 (≈ 3.51 µg/mL) | 12.3 (≈ 4 µg/mL) | MIC [3]: 86 µM
Nc1ccnc(C=NNc2nncc3ccccc23)c1 [PH 22-23, 4-aminopyridine-2-aldehyde-1'-phthalazinylhydrazine] | 26.5 (≈ 7 µg/mL) | 13.3 (≈ 3.52 µg/mL) | 38 (≈ 10 µg/mL) | 13.3 (≈ 3.52 µg/mL) | –
CC(=NNc1nncc2ccccc12)c1cc(N)ccn1 [PH 22-24, 2-acetyl-4-aminopyridine-1'-phthalazinylhydrazine] | 2.2 (≈ 0.612 µg/mL) | 4.5 (≈ 1.25 µg/mL) | 18 (≈ 5.01 µg/mL) | 4.5 (≈ 1.25 µg/mL) | –
C(=NNc1nccc2ccccc12)c1ccccn1 [PH 22-27, pyridine-2-aldehyde-1'-isoquinolylhydrazone] | 6 (≈ 1.49 µg/mL) | 8.1 (≈ 2.01 µg/mL) | 16.1 (≈ 4 µg/mL) | 12.1 (≈ 3 µg/mL) | –
CC(O)CN(C)c1ccc(NN=Cc2ccccn2)nn1 (centres unmarked) [PH 22-28, pyridine-2-aldehyde-6'-(N-methyl-N-2"-hydroxypropyl)-amino-3'-pyridazinylhydrazone] | 35 (≈ 10 µg/mL) | 140 (≈ 40.1 µg/mL) | 70 (≈ 20 µg/mL) | – | –
Clc1cccc(NN=Cc2ccccn2)n1 [PH 22-29, pyridine-2-aldehyde-6'-chloro-2'-pyridylhydrazone] | 3.2 (≈ 0.745 µg/mL) | 1.6 (≈ 0.372 µg/mL) | 6.5 (≈ 1.51 µg/mL) | – | MIC [3]: 60 µM
Clc1ccc(NN=Cc2ccccn2)nc1 [PH 22-30, pyridine-2-aldehyde-5'-chloro-2'-pyridylhydrazone] | 2.7 (≈ 0.628 µg/mL) | 1.3 (≈ 0.302 µg/mL) | 5.4 (≈ 1.26 µg/mL) | – | MIC [3]: 13 µM
Cc1cccc(NN=Cc2ccccn2)n1 [PH 22-31, pyridine-2-aldehyde-2'-(6'-methyl)-pyridylhydrazone] | 3.5 (≈ 0.743 µg/mL) | 1.8 (≈ 0.382 µg/mL) | 8.3 (≈ 1.76 µg/mL) | – | MIC [3]: 57 µM
CC(=NNc1cc(Cl)ncn1)c1ccccn1 [PH 22-32] | 1.3 (≈ 0.322 µg/mL) | 6.1 (≈ 1.51 µg/mL) | 28.3 (≈ 7.01 µg/mL) | – | –
CCc1ccc(C=NNc2cc(OC)ncn2)nc1 [PH 22-33, 5-ethylpyridine-2-aldehyde-6'-methoxy-4'-pyrimidylhydrazone] | 1.5 (≈ 0.386 µg/mL) | 2.4 (≈ 0.618 µg/mL) | 4.9 (≈ 1.26 µg/mL) | – | –
CC(=NNc1ncnc2ccccc12)c1ccccn1 [PH 22-34, 2-acetylpyridine-4'-quinazolylhydrazone] | < 1 | 12 (≈ 3.16 µg/mL) | 64 (≈ 16.9 µg/mL) | – | –
CN(N=Cc1ccccn1)c1cc(Cl)ncn1 [PH 22-36, pyridine-2-aldehyde-6'-chloro-4'-pyrimidyl-(N1-methyl)-hydrazone] | 5.3 (≈ 1.31 µg/mL) | 136 (≈ 33.7 µg/mL) | 119 (≈ 29.5 µg/mL) | – | –
C(=NNc1ccccn1)c1nccc2ccccc12 [PH 22-37, isoquinoline-1-aldehyde-2'-pyridyl hydrazone] | 12.1 (≈ 3 µg/mL) | 3 (≈ 0.745 µg/mL) | 6 (≈ 1.49 µg/mL) | 6 (≈ 1.49 µg/mL) | –
